Test results taken from patent publication US20250353891A1 (MEDIMMUNE LIMITED, priority 2022, published 2025).
Where two headings read alike, the source gives them in different places. Starred links: 1 amine or outer side, 2 acyl side, 3 side chain; linkers in the order of their positions; H or OH if unused. Non-standard residues stand in square brackets, D forms with d. Residues, ends and D or L forms follow the SMILES beside them. Groups on a side chain read outwards from the residue. *: point of attachment. C18 diacid = O=C(O)CCCCCCCCCCCCCCCCC(=O)*; Dip = N[C@H](C(=O)O)C(c1ccccc1)c1ccccc1; γGlu = O=C(O)[C@H](CCC(=O)[*:2])N[*:1]; Stearoyl = CCCCCCCCCCCCCCCCCC(=O)*; Palmitoyl = CCCCCCCCCCCCCCCC(=O)*; αMeF = C[C@](N)(Cc1ccccc1)C(=O)O; PEG4 = NCCOCCOCCOCCOCCC(=O)O; Nle = CCCC[C@H](N)C(=O)O; PEG2 = NCCOCCOCCC(=O)O; AEEA = NCCOCCOCC(=O)O; Aib = CC(C)(N)C(=O)O

Experiments:
[1] = Mouse acute food intake study; assay type: in vivo; details: male C57Bl/6 mice, s.c., dose 10 nmol/kg, cumulative food intake at 24 hr vs vehicle
Experimental: Male C57Bl/6 mice obtained from Jackson Laboratories or Charles River at 8-9 weeks of age and were housed one per cage in BioDaq (Research Diets) cages. Mice were placed on Alpha Dri bedding, standard chow diet (Envigo, 2018) and given water pouches. Mice were allowed to acclimate for 1-2 weeks. Body weight was measured to ensure appropriate acclimation. After acclimation, mice were sham dosed a minimum of 2 times prior to initiation of food intake study. On study day, mice were placed in clean cage bottoms, weighed, and fasted for 6-8 hours. Mice were sorted into groups based on average 24-hour food intake data and body weight. 1-2 hours prior to lights out, mice were dosed subcutaneously with one vehicle or test peptide dissolved in an appropriate vehicle at 5 mL/kg. Mice were left undisturbed and allowed access to food and water for 48 hours. Automated food intake was monitored in the BioDaq system was monitored during this time. Discrete food intake data was exported into MS Excel from which cumulative food intake data was generated and analyzed.

[2] = biological target: human glucagon receptor (hGCGR) (Homo sapiens, UniProt P47871); experiment: cAMP production (HTRF) in CHO cells expressing hGCGR; assay type: cell-based; parameters: expressed in transfected cells; details: cAMP in CHO hGCGR cells, geometric mean, read-out: hGluc-R EC50
human glucagon receptor (hGCGR), sequence (P47871 26-477): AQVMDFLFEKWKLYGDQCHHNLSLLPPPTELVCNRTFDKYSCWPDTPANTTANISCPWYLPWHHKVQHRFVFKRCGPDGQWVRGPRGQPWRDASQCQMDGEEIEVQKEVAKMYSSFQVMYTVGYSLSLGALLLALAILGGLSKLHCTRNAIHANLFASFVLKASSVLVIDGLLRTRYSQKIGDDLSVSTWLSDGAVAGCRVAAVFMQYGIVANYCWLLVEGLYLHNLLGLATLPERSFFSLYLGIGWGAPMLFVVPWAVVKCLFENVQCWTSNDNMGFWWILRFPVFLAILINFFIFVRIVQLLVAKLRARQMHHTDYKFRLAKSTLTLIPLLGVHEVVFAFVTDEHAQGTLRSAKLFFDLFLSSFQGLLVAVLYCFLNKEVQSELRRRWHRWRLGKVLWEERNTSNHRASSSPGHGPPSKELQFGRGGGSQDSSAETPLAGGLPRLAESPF
Summary of the method: (§1)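 Potency values represent EC50 from 4-parameter logistic curves of HTRF % Delta F signal. Receptor-expressing CHO cells (hGCGR 2×10^5 cells/mL, hGLP-1R 1×10^5 cells/mL) were exposed for 30 min at room temperature before two-step cAMP detection.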

[3] = biological target: human GLP-1 receptor (hGLP-1R) (Homo sapiens, UniProt P43220); experiment: cAMP production (HTRF) in CHO cells expressing hGLP-1R; assay type: cell-based; parameters: expressed in transfected cells; details: for EC50: cAMP in CHO hGLP-1R cells, geometric mean, read-out: hGLP-1R EC50; for % Relative Potency Ratio: % GLP-1R activity relative to GLP-1 / % GlucR activity relative to glucagon
human GLP-1 receptor (hGLP-1R), sequence (P43220 24-463): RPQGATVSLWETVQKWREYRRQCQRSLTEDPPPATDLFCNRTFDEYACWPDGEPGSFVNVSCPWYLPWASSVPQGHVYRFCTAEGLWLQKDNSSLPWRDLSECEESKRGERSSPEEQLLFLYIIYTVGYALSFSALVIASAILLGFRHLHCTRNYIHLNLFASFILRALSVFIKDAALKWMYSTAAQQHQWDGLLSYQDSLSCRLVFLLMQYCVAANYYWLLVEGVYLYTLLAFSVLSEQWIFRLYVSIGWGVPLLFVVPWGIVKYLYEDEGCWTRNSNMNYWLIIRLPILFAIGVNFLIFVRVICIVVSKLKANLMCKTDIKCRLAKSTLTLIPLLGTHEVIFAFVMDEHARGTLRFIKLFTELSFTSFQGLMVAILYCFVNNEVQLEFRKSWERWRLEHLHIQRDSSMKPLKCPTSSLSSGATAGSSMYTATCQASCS
Summary of the method: as §1

[4] = Table 6, peptides modified at position 17
[5] = Table 7, peptides modified at position 20

| Compound | EC50 [2, 4] [nM] | EC50 [3, 4] [nM] | % Relative Potency Ratio ([3]; Table 6) | EC50 [2, 5] [nM] | EC50 [3, 5] [nM] | % Relative Potency Ratio ([3]; Table 7) | 24 hr % Vehicle Food Intake [1] [%] |
| --- | --- | --- | --- | --- | --- | --- | --- |
| CCCCCCCCCCCCCCCCCC(=O)N[C@@H](CCC(=O)N[C@@H](CCC(=O)NCCOCCOCCC(=O)NCCOCCOCCC(=O)NCCCC[C@H](NC(=O)[C@H](CO)NC(=O)[C@H](CC(=O)O)NC(=O)[C@H](CC(C)C)NC(=O)[C@@H](NC(=O)[C@H](CCCCN)NC(=O)[C@H](CO)NC(=O)[C@@H](NC(=O)[C@H](CC(=O)O)NC(=O)[C@H](CO)NC(=O)[C@@H](NC(=O)[C@](C)(Cc1ccccc1)NC(=O)[C@H](CO)NC(=O)CNC(=O)[C@H](CCC(N)=O)NC(=O)[C@H](CO)NC(=O)[C@@H](N)Cc1c[nH]cn1)[C@@H](C)O)C(C)C)C(c1ccccc1)c1ccccc1)C(=O)N[C@@H](C)C(=O)N[C@@H](C)C(=O)N[C@@H](CCC(N)=O)C(=O)N[C@@H](CC(=O)O)C(=O)N[C@@](C)(Cc1ccccc1)C(=O)N[C@H](C(=O)N[C@@H](CCC(=O)O)C(=O)NC(C)(C)C(=O)N[C@@H](CC(C)C)C(=O)N[C@@H](CCC(=O)O)C(=O)N[C@@H](C)C(=O)NCC(=O)NCC(N)=O)C(C)C)C(=O)O)C(=O)O [Peptide 46] (H-HSQGS[αMeF]TSDVSK[Dip]LDSK([PEG2-PEG2-γGlu-γGlu-Stearoyl])AAQD[αMeF]VE[Aib]LEAGG-NH2; N-terminus assumed) | 0.00591 | 0.00339 | 3.4 | – | – | – | 72.1 |
| CCCCCCCCCCCCCCCC(=O)N[C@@H](CCC(=O)NCCOCCOCCOCCOCCC(=O)NCCCC[C@H](NC(=O)[C@@H](NC(=O)[C@H](CC(=O)O)NC(=O)[C@H](CC(C)C)NC(=O)[C@](C)(Cc1ccccc1)NC(=O)[C@H](CCCCN)NC(=O)[C@H](CO)NC(=O)[C@@H](NC(=O)[C@H](CC(=O)O)NC(=O)[C@H](CO)NC(=O)[C@@H](NC(=O)[C@H](Cc1ccccc1)NC(=O)[C@@H](NC(=O)CNC(=O)[C@H](CCC(N)=O)NC(=O)C(C)(C)NC(=O)[C@@H](N)Cc1c[nH]cn1)[C@@H](C)O)[C@@H](C)O)C(C)C)C(C)C)C(=O)N[C@@H](CCCNC(=N)N)C(=O)N[C@@H](C)C(=O)N[C@@H](CCC(N)=O)C(=O)N[C@@H](CC(=O)O)C(=O)N[C@@](C)(Cc1ccccc1)C(=O)N[C@H](C(=O)N[C@@H](CCC(=O)O)C(=O)NC(C)(C)C(=O)N[C@@H](CC(C)C)C(=O)N[C@@H](CCCC)C(=O)N[C@@H](CCC(=O)O)C(=O)N[C@H](C(N)=O)[C@@H](C)O)C(C)C)C(=O)O [Peptide 68] (H-H[Aib]QGTFTSDVSK[αMeF]LDVK([PEG4-γGlu-Palmitoyl])RAQD[αMeF]VE[Aib]L[Nle]ET-NH2; N-terminus assumed) | 0.00467 | 0.0011 | 8.4 | – | – | – | 74.2 |
| CCCCCCCCCCCCCCCCCC(=O)N[C@@H](CCC(=O)N[C@@H](CCC(=O)NCCOCCOCCOCCOCCC(=O)NCCCC[C@H](NC(=O)[C@H](CO)NC(=O)[C@H](CC(=O)O)NC(=O)[C@H](CC(C)C)NC(=O)[C@](C)(Cc1ccccc1)NC(=O)[C@H](CCCCN)NC(=O)[C@H](CO)NC(=O)[C@@H](NC(=O)[C@H](CC(=O)O)NC(=O)[C@H](CO)NC(=O)[C@@H](NC(=O)[C@](C)(Cc1ccccc1)NC(=O)[C@H](CO)NC(=O)CNC(=O)[C@H](CCC(N)=O)NC(=O)C(C)(C)NC(=O)[C@@H](N)Cc1c[nH]cn1)[C@@H](C)O)C(C)C)C(=O)N[C@@H](C)C(=O)N[C@@H](C)C(=O)N[C@@H](CCC(N)=O)C(=O)N[C@@H](CC(=O)O)C(=O)N[C@@](C)(Cc1ccccc1)C(=O)N[C@H](C(=O)N[C@@H](CCC(=O)O)C(=O)NC(C)(C)C(=O)N[C@@H](CC(C)C)C(=O)N[C@@H](CCC(=O)O)C(=O)N[C@@H](C)C(=O)NCC(=O)NCC(N)=O)C(C)C)C(=O)O)C(=O)O [Peptide 71] (H-H[Aib]QGS[αMeF]TSDVSK[αMeF]LDSK([PEG4-γGlu-γGlu-Stearoyl])AAQD[αMeF]VE[Aib]LEAGG-NH2) | 0.0537 | 0.00217 | 48.9 | – | – | – | 80.6 |
| CC(C)C[C@H](NC(=O)[C@H](Cc1c[nH]c2ccccc12)NC(=O)[C@H](CCCNC(=N)N)NC(=O)[C@@H](NC(=O)[C@H](Cc1ccccc1)NC(=O)[C@H](CC(=O)O)NC(=O)[C@H](CCCCNC(=O)COCCOCCNC(=O)COCCOCCNC(=O)CC[C@H](NC(=O)CCCCCCCCCCCCCCCCC(=O)O)C(=O)O)NC(=O)[C@H](C)NC(=O)[C@H](CCCNC(=N)N)NC(=O)[C@H](CCC(=O)O)NC(=O)[C@H](CO)NC(=O)[C@H](CC(=O)O)NC(=O)[C@H](CC(C)C)NC(=O)[C@](C)(Cc1ccccc1)NC(=O)[C@H](CCC(=O)O)NC(=O)[C@H](CO)NC(=O)[C@@H](NC(=O)[C@H](CC(=O)O)NC(=O)[C@H](CO)NC(=O)[C@@H](NC(=O)[C@H](Cc1ccccc1)NC(=O)[C@@H](NC(=O)CNC(=O)[C@H](CCC(N)=O)NC(=O)C(C)(C)NC(=O)[C@@H](N)Cc1c[nH]cn1)[C@@H](C)O)[C@@H](C)O)C(C)C)C(C)C)C(=O)N[C@@H](CCC(=O)O)C(=O)N[C@@H](C)C(=O)NCC(=O)NCC(=O)O [Peptide 524] (H-H[Aib]QGTFTSDVSE[αMeF]LDSERAK([AEEA-AEEA-γGlu-C18 diacid])DFVRWLEAGG-OH) | – | – | – | > 24.4 | 0.366 | – | – |
| CC(C)C[C@H](NC(=O)[C@H](Cc1c[nH]c2ccccc12)NC(=O)[C@H](C)NC(=O)[C@@H](NC(=O)[C@H](Cc1ccccc1)NC(=O)[C@H](CC(=O)O)NC(=O)[C@H](CCCCNC(=O)COCCOCCNC(=O)COCCOCCNC(=O)CC[C@H](NC(=O)CCCCCCCCCCCCCCCCC(=O)O)C(=O)O)NC(=O)[C@H](C)NC(=O)[C@H](CCCNC(=N)N)NC(=O)[C@H](CCC(=O)O)NC(=O)[C@H](CO)NC(=O)[C@H](CC(=O)O)NC(=O)[C@H](CC(C)C)NC(=O)[C@](C)(Cc1ccccc1)NC(=O)[C@H](CCCCN)NC(=O)[C@H](CO)NC(=O)[C@@H](NC(=O)[C@H](CC(=O)O)NC(=O)[C@H](CO)NC(=O)[C@@H](NC(=O)[C@H](Cc1ccccc1)NC(=O)[C@@H](NC(=O)CNC(=O)[C@H](CCC(N)=O)NC(=O)C(C)(C)NC(=O)[C@@H](N)Cc1c[nH]cn1)[C@@H](C)O)[C@@H](C)O)C(C)C)C(C)C)C(=O)N[C@@H](CCC(=O)O)C(=O)N[C@@H](C)C(=O)NC(C)(C)C(=O)NCC(=O)O [Peptide 526] | – | – | – | 0.69 | 0.194 | 7.0 | – |

Continued, in another order:

| EC50 [2, 4] [nM] | EC50 [3, 4] [nM] | % Relative Potency Ratio ([3]; Table 6) | EC50 [2, 5] [nM] | EC50 [3, 5] [nM] | % Relative Potency Ratio ([3]; Table 7) | Compound | 24 hr % Vehicle Food Intake [1] [%] |
| --- | --- | --- | --- | --- | --- | --- | --- |
| 0.0149 | 0.00203 | 14.6 | – | – | – | CCCCCCCCCCCCCCCCCC(=O)N[C@@H](CCC(=O)N[C@@H](CCC(=O)NCCOCCOCCC(=O)NCCOCCOCCC(=O)NCCCC[C@H](NC(=O)[C@H](CO)NC(=O)[C@H](CC(=O)O)NC(=O)[C@H](CC(C)C)NC(=O)[C@@H](NC(=O)[C@H](CCCCN)NC(=O)[C@H](CO)NC(=O)[C@@H](NC(=O)[C@H](CC(=O)O)NC(=O)[C@H](CO)NC(=O)[C@@H](NC(=O)[C@](C)(Cc1ccccc1)NC(=O)[C@H](CO)NC(=O)CNC(=O)[C@H](CCC(N)=O)NC(=O)C(C)(C)NC(=O)[C@@H](N)Cc1c[nH]cn1)[C@@H](C)O)C(C)C)C(c1ccccc1)c1ccccc1)C(=O)N[C@@H](C)C(=O)N[C@@H](C)C(=O)N[C@@H](CCC(N)=O)C(=O)N[C@@H](CC(=O)O)C(=O)N[C@@](C)(Cc1ccccc1)C(=O)N[C@H](C(=O)N[C@@H](CCC(=O)O)C(=O)NC(C)(C)C(=O)N[C@@H](CC(C)C)C(=O)N[C@@H](C)C(=O)N[C@@H](CC(N)=O)C(=O)N[C@H](C(N)=O)[C@@H](C)O)C(C)C)C(=O)O)C(=O)O [Peptide 45] (H-H[Aib]QGS[αMeF]TSDVSK[Dip]LDSK([PEG2-PEG2-γGlu-γGlu-Stearoyl])AAQD[αMeF]VE[Aib]LANT-NH2; N-terminus assumed) | 76.2 |
| – | – | – | 2.45 | 0.177 | 27.4 | CC(C)C[C@H](NC(=O)[C@H](Cc1c[nH]c2ccccc12)NC(=O)[C@H](CCC(N)=O)NC(=O)[C@@H](NC(=O)[C@H](Cc1ccccc1)NC(=O)[C@H](CC(=O)O)NC(=O)[C@H](CCCCNC(=O)COCCOCCNC(=O)COCCOCCNC(=O)CC[C@H](NC(=O)CCCCCCCCCCCCCCCCC(=O)O)C(=O)O)NC(=O)[C@H](C)NC(=O)[C@H](CCCNC(=N)N)NC(=O)[C@H](CCC(=O)O)NC(=O)[C@H](CO)NC(=O)[C@H](CC(=O)O)NC(=O)[C@H](CC(C)C)NC(=O)[C@](C)(Cc1ccccc1)NC(=O)[C@H](CCCCN)NC(=O)[C@H](CO)NC(=O)[C@@H](NC(=O)[C@H](CC(=O)O)NC(=O)[C@H](CO)NC(=O)[C@@H](NC(=O)[C@H](Cc1ccccc1)NC(=O)[C@@H](NC(=O)CNC(=O)[C@H](CCC(N)=O)NC(=O)C(C)(C)NC(=O)[C@@H](N)Cc1c[nH]cn1)[C@@H](C)O)[C@@H](C)O)C(C)C)C(C)C)C(=O)N[C@@H](CCC(=O)O)C(=O)N[C@@H](C)C(=O)NC(C)(C)C(=O)NCC(=O)O [Peptide 525] | – |
